Measured values taken from ChEMBL document CHEMBL1269002, “A protecting group-free synthesis of deazathiamine: a step toward inhibitor design” (Bioorg Med Chem Lett, 2010).
pIC50, pKi: −log10 of the molar value.

What was measured:
[1] = Competitive inhibition of Mycobacterium tuberculosis 2-hydroxy-3-oxoadipate synthase-catalyzed reduction of ferricyanide
[2] = Inhibition of Mycobacterium tuberculosis 2-hydroxy-3-oxoadipate synthase-catalyzed reduction of ferricyanide

SMILES	pKi [1]	pIC50 [2]
Cc1ncc(Cc2csc(CCOP(=O)(O)OP(=O)(O)O)c2C)c(N)n1	5.46	5.17
Cc1ncc(Cc2csc(CCO)c2C)c(N)n1 [3-DEAZATHIAMINE]	4.12	3.84
